According to patent EP0316212B1 (priority 1987, dated 1989):
Like-named read-outs stand apart in the source and are kept apart here.

What was measured:
Cellules T = assay: Proliferation of mouse T cells (3H-thymidine incorporation); type: cell-based, souris; conditions: for inhibition at 200 µg/mL: T-cell, read-out: pourcentage d'augmentation (+) ou d'inhibition (-) de la prolifération
From the text: (§1) Les anticorps utilisés sont des anticorps monoclonaux (AM) naturels (N5-12, N5-17, MO-1, 62-1, D-23) et proviennent d'hybridomes préparés par fusion des cellules de rate de souris n'ayant reçu aucune immunisation au préalable ni aucune stimulation mitogénique, avec le myélome de souris X63-Ag8. Les hybridomes TNP11 et TNP9 proviennent de fusion des cellules de rate de souris immunisées avec du Ficoll-TNP. Ils ont été maintenus en culture dans le milieu RPMI complet contenant 10% de sérum de veau foetal. Les hybridomes ont été injectés à des souris Balb/c préalablement traitées au pristane dans le but d'obtenir des ascites. Les AM ont été utilisés en tant que surnageants de culture ou en tant qu'ascites ou après isolement par chromatographie d'affinité sur une colonne de DNP-Sépharose. Ces anticorps ont été testés par test immunoenzymatique sur différents antigènes immobilisés sur des plaques de polystyrène et révélés par un anticorps anti-Ig de souris couplé à la β-galactosidase.
(§2) Le TNP a été couplé à la sérumalbumine bovine (BSA) par la méthode de Little & Eisen : 1ml de BSA à 20mg/ml dans le tampon carbonate-bicarbonate, 0,1M, pH 9,5, est ajouté à 1ml d'une solution d'acide trinitrobenzène sulfonique à 2 mg/ml dans le même tampon. La réaction est arrêtée après 30 à 120 minutes selon la substitution voulue par élimination de l'excès de réactifs sur échangeur d'ions (Dowex 1 x 4) puis dialyse. Des préparations de BSA substituée avec soit 14 ou 30 molécules de TNP par molécule de BSA (TNP₁₄-BSA ou TNP₃₀-BSA) ont été utilisées.
(§3) Le DNP-Glycine (DNP-Gly) et le DNP-Lysine (DNP-Lys) proviennent des Laboratoires Sigma et sont solubilisés directement dans le milieu de culture.
(§4) Les cellules proviennent de rate ou de thymus de souris. Les souris sont tuées par dislocation cervicale et leur rate ou leur thymus prélevé stérilement sont déposés dans du milieu RPMI. Les cellules sont dissociées, lavées une fois avec du milieu puis les globules rouges sont lysés au chlorure d'ammonium (0,9%) pendant 1 minute à froid puis les cellules sont relavées dans le milieu complet.
(§5) Les sous-populations de cellules B ou T sont ensuite séparées comme suit : • Sous-population T : les cellules T sont obtenues à partir de la population de cellules de la rate par élimination des cellules portant des Ig à leur surface (sous-population B) sur des anticorps anti-Ig de souris immobilisés soit sur des billes magnétiques (Magnogel)® soit sur des boites de Pétri. • Sous-population B : les cellules B sont obtenues après détachement mécanique des supports dur lesquels elles étaient fixées par l'intermédiaire des anticorps anti-Ig (après l'isolement des cellules T), ou après élimination de la sous-population des cellules T de la population totale des cellules de rate par un traitement avec un anticorps anti-cellules T suivi de complément de cobaye. • Thymocytes : les thymocytes sont dissociés dans le RPMI et les cellules isolées sont lavées dans le milieu complet avant d'être mises en culture.
(§6) Le milieu de culture utilisé est du RPMI 1640 contenant du sérum de veau foetal (5%), du pyruvate de sodium (1mM), de la L-glutamine (1mM), du 2-mercaptoethanol (0,05 mM), de la pénicilline (100»g/ml) et de la streptomycine (50»g/ml).
(§7) 2x10⁵ cellules de chaque population cellulaire ou 4x10⁵ de cellules de rate non fractionnées sont distribuées sous un volume final de 200»l dans des boîtes de culture de 96 puits à fond plat en présence ou non des différents stimulateurs (ou mitogènes)(40»g/ml de lipopolysaccharide W Salmonella typhosa 2»g/ml de concanavaline A, ou des surnageants de culture contenant les anticorps monoclonaux à différentes dilutions ou une solution de TNP-BSA à des concentrations finales allant de 200ng à 200»g/ml). Les cultures sont effectuées pendant 48 à 96 heures à 37°C dans une atmosphère de 5% de CO2.
(§8) Six à huit heures avant la fin de la culture, 100»l de surnageant sont prélevés de chaque puits de culture afin d'être testés quant à leur contenu en anticorps. […]

Cellules B = assay: Proliferation of mouse B cells (3H-thymidine incorporation); type: cell-based, souris; conditions: for inhibition at 200 µg/mL: B-cell, read-out: pourcentage d'augmentation (+) ou d'inhibition (-) de la prolifération
From the text: as §1, §2, §3, §4, §5, §6, §7, §8

[1] = tested on: virus de la chorioméningite lymphocytaire (CML); assay: organism not typed; type: cell-based; conditions: for % Inhibition: préincubés avec les cellules L929
Cellules de rate = assay: Proliferation of mouse spleen cells (3H-thymidine incorporation); type: cell-based, souris; conditions: for inhibition at 200 µg/mL: read-out: pourcentage d'augmentation (+) ou d'inhibition (-) de la prolifération
From the text: as §1, §2, §3, §4, §6, §7
Six à huit heures avant la fin de la culture, 100»l de surnageant sont prélevés de chaque puits de culture afin d'être testés quant à leur contenu en anticorps. 10»l d'une solution de ³H-thymidine (activité spécifique = […]) à 50 »Ci/ml sont ajoutés à la culture qui est ensuite poursuivie. Les cellules de chaque puits sont collectées sur du papier filtre à l'aide d'un collecteur automatique et, après sèchage, les filtres sont comptés dans un liquide scintillant.

[2] = 0,7 (µg/ml), conA* (mitogène ajouté après 48 heures)
[3] = 200µg/ml, conA* (mitogène ajouté après 48 heures)
[4] = 3 (µg/ml), conA* (mitogène ajouté après 48 heures)
[5] = 12 (µg/ml), conA* (mitogène ajouté après 48 heures)
[6] = 50 (µg/ml), conA* (mitogène ajouté après 48 heures)
[7] = 200µg/ml, LPS* (mitogène ajouté après 48 heures)
[8] = 3 (µg/ml), LPS* (mitogène ajouté après 48 heures)
[9] = 12 (µg/ml), LPS* (mitogène ajouté après 48 heures)
[10] = 50 (µg/ml), LPS* (mitogène ajouté après 48 heures)
[11] = 200µg/ml, LPS* (mitogène ajouté après 48 heures avec le dérivé NP)
[12] = 200µg/ml, conA* (mitogène ajouté après 48 heures avec le dérivé NP)

Compound: TNP-BSA
- pourcentage d'augmentation (+) ou d'inhibition (-) de la prolifération (Cellules T; 0,7 (µg/ml), M (milieu seul)): 0%
- pourcentage d'augmentation (+) ou d'inhibition (-) de la prolifération (Cellules T; [2]): -50%
- pourcentage d'augmentation (+) ou d'inhibition (-) de la prolifération (Cellules T; 200µg/ml, M (milieu seul)): +30%
- pourcentage d'augmentation (+) ou d'inhibition (-) de la prolifération (Cellules T; [3]): -50%
- pourcentage d'augmentation (+) ou d'inhibition (-) de la prolifération (Cellules T; 3 (µg/ml), M (milieu seul)): 0%
- pourcentage d'augmentation (+) ou d'inhibition (-) de la prolifération (Cellules T; [4]): -40%
- pourcentage d'augmentation (+) ou d'inhibition (-) de la prolifération (Cellules T; 12 (µg/ml), M (milieu seul)): +20%
- pourcentage d'augmentation (+) ou d'inhibition (-) de la prolifération (Cellules T; [5]): -20%
- pourcentage d'augmentation (+) ou d'inhibition (-) de la prolifération (Cellules T; 50 (µg/ml), M (milieu seul)): +18%
- pourcentage d'augmentation (+) ou d'inhibition (-) de la prolifération (Cellules T; [6]): -25%
- pourcentage d'augmentation (+) ou d'inhibition (-) de la prolifération (Cellules B; [7]): +18%
- pourcentage d'augmentation (+) ou d'inhibition (-) de la prolifération (Cellules B; 200µg/ml, M (milieu seul)): +100%
- pourcentage d'augmentation (+) ou d'inhibition (-) de la prolifération (Cellules B; [8]): 0%
- pourcentage d'augmentation (+) ou d'inhibition (-) de la prolifération (Cellules B; 3 (µg/ml), M (milieu seul)): 0%
- pourcentage d'augmentation (+) ou d'inhibition (-) de la prolifération (Cellules B; [9]): 0%
- pourcentage d'augmentation (+) ou d'inhibition (-) de la prolifération (Cellules B; 12 (µg/ml), M (milieu seul)): 0%
- pourcentage d'augmentation (+) ou d'inhibition (-) de la prolifération (Cellules B; [10]): 0%
- pourcentage d'augmentation (+) ou d'inhibition (-) de la prolifération (Cellules B; 50 (µg/ml), M (milieu seul)): +50%
- % Inhibition ([1]; 0.12 mg/ml): 0%
- % Inhibition ([1]; 0.25 mg/ml): 22%
- % Inhibition ([1]; 0.5 mg/ml): 48%
- % Inhibition ([1]; 1 mg/ml): 63%
- pourcentage d'augmentation (+) ou d'inhibition (-) de la prolifération (Cellules de rate; [11]): +30%
- pourcentage d'augmentation (+) ou d'inhibition (-) de la prolifération (Cellules de rate; 200µg/ml, M (milieu seul)): +50%
- pourcentage d'augmentation (+) ou d'inhibition (-) de la prolifération (Cellules de rate; [12]): +46%
- pourcentage d'augmentation (+) ou d'inhibition (-) de la prolifération (Cellules de rate; [9]): 0%
- pourcentage d'augmentation (+) ou d'inhibition (-) de la prolifération (Cellules de rate; 12 (µg/ml), M (milieu seul)): +10%
- pourcentage d'augmentation (+) ou d'inhibition (-) de la prolifération (Cellules de rate; [5]): +28%
- pourcentage d'augmentation (+) ou d'inhibition (-) de la prolifération (Cellules de rate; [10]): +20%
- pourcentage d'augmentation (+) ou d'inhibition (-) de la prolifération (Cellules de rate; 50 (µg/ml), M (milieu seul)): +30%
- pourcentage d'augmentation (+) ou d'inhibition (-) de la prolifération (Cellules de rate; [6]): +30%

Compound: O=C(O)CNc1ccc([N+](=O)[O-])cc1[N+](=O)[O-] [DNP-glycine, DNP-Glycine]
- pourcentage d'augmentation (+) ou d'inhibition (-) de la prolifération (Cellules T; 0,7 (µg/ml), M (milieu seul)): +50%
- pourcentage d'augmentation (+) ou d'inhibition (-) de la prolifération (Cellules T; [2]): 0%
- pourcentage d'augmentation (+) ou d'inhibition (-) de la prolifération (Cellules T; 3 (µg/ml), M (milieu seul)): 0%
- pourcentage d'augmentation (+) ou d'inhibition (-) de la prolifération (Cellules T; [4]): -5%
- pourcentage d'augmentation (+) ou d'inhibition (-) de la prolifération (Cellules T; 12 (µg/ml), M (milieu seul)): 0%
- pourcentage d'augmentation (+) ou d'inhibition (-) de la prolifération (Cellules T; [5]): -4%
- pourcentage d'augmentation (+) ou d'inhibition (-) de la prolifération (Cellules T; 50 (µg/ml), M (milieu seul)): +30%
- pourcentage d'augmentation (+) ou d'inhibition (-) de la prolifération (Cellules T; [6]): -15%
- inhibition at 200 µg/mL (Cellules T; 200µg/ml, M (milieu seul)): 4%
- inhibition at 200 µg/mL (Cellules T; [3]): -45%
- pourcentage d'augmentation (+) ou d'inhibition (-) de la prolifération (Cellules B; [8]): -7%
- pourcentage d'augmentation (+) ou d'inhibition (-) de la prolifération (Cellules B; 3 (µg/ml), M (milieu seul)): -25%
- pourcentage d'augmentation (+) ou d'inhibition (-) de la prolifération (Cellules B; [9]): -40%
- pourcentage d'augmentation (+) ou d'inhibition (-) de la prolifération (Cellules B; 12 (µg/ml), M (milieu seul)): -50%
- pourcentage d'augmentation (+) ou d'inhibition (-) de la prolifération (Cellules B; [10]): -64%
- pourcentage d'augmentation (+) ou d'inhibition (-) de la prolifération (Cellules B; 50 (µg/ml), M (milieu seul)): -60%
- inhibition at 200 µg/mL (Cellules B; [7]): -80%
- inhibition at 200 µg/mL (Cellules B; 200µg/ml, M (milieu seul)): -90%
- inhibition at 10 µg/mL ([1]; L929): 25%
- inhibition at 30 µg/mL ([1]; L929): 80%
- inhibition at 60 µg/mL ([1]; L929): 15%
- inhibition at 120 µg/mL ([1]; L929): 30%
- inhibition at 240 µg/mL ([1]; L929): 25%
- inhibition at 480 µg/mL ([1]; L929): 55%
- inhibition at 200 µg/mL (Cellules de rate; [11]): -60%
- inhibition at 200 µg/mL (Cellules de rate; 200µg/ml, M (milieu seul)): -64%
- inhibition at 200 µg/mL (Cellules de rate; [12]): -50%
- pourcentage d'augmentation (+) ou d'inhibition (-) de la prolifération (Cellules de rate; [9]): 0%
- pourcentage d'augmentation (+) ou d'inhibition (-) de la prolifération (Cellules de rate; 12 (µg/ml), M (milieu seul)): -10%
- pourcentage d'augmentation (+) ou d'inhibition (-) de la prolifération (Cellules de rate; [5]): -30%
- pourcentage d'augmentation (+) ou d'inhibition (-) de la prolifération (Cellules de rate; [10]): -20%
- pourcentage d'augmentation (+) ou d'inhibition (-) de la prolifération (Cellules de rate; 50 (µg/ml), M (milieu seul)): -30%
- pourcentage d'augmentation (+) ou d'inhibition (-) de la prolifération (Cellules de rate; [6]): 0%
